Reference: US7037902B2, “Affinity small molecules for the EPO receptor” (Receptron, Inc., priority 2002, dated 2006)
Entries after “also recorded” stand apart in the source; their conditions may differ.

Assays:
[1] = system: cortical neurons; test: glutamate-induced neuronal death in cultured cortical neurons; type: cell-based, rats; details: 300 μM glutamate for 24 hours
Description: Primary cultured cells were used as a model to evaluate the subject small molecule effect on CNS. Glutamate neurotoxicity can be most directly studied using neurons prepared from the brain at the late embryonic stage and subsequently cultured for maturation. To examine the effect of the subject small molecules (E5A24 and E5A29) on glutamate-induced neuronal death, cortical neurons isolated from embryonic day 18 rats, were cultured for 10 days. Subsequently, neurons were treated for 24 hours with or without the subject small molecules, and further exposed to 300 μM glutamate for 24 hours. After glutamate was washed out, the cells were cultured for another 24 hours. During the glutamate challenge and subsequent culture, the subject small molecules were absent. Finally, the cell viability was examined. […] Experiments were performed according to the literature (Morishita et. al., Neuroscience 76, 105, 1997).

[2] = system: mouse bone marrow cells; test: formation of erythroid colonies from mouse bone marrow in methylcellulose; type: cell-based
Description: (§1) Mouse or human bone marrow cells were stimulated in methylcellulose for 7 days (mouse) or 14 days (human) with non-peptide EPO-R modulators. Formation of erythroid colonies was observed. (See FIGS. 6 to 8)
Bone marrow cells were isolated from mouse femurs. Cells were washed twice with PBS and resuspended to a density of 6.5×10^6 cells/ml in media. 300 μl (6.5×10^5/ml) of cells were mixed with 1.5 ml of methylcellulose media (Stemcell Technology) to which the desired concentration of compound or the EPO was added. The mixture was poured onto 35 mm dishes; all the conditions are performed in duplicates. The incubation was for […] at 37° C., 5% CO2. The colonies were scored on day seven.
After thawing methylcellulose overnight, the next morning, 20 ml of Iscove's MDM+2%FBS is added to the bottle to achieve 100 ml total. The bottle is mixed for at least 30 seconds and settled for about 10 minutes. 10 cc syringes are used to aliquot 3 ml per minisorp tube.

[3] = system: EPO-Receptor down stream signaling pathway; test: in vitro signaling (phosphorylation of EPO-R, JAK2, STAT1, STAT3, STAT5); type: cell-based; details: UT-7 cells
Description: UT-7 cells were grown in Minimal Essential Medium Alpha (MEM-α) containing 20% FBS, 1.5 g/L NaHCO3, 5 ng/ml GM-CSF, and 100U Penicillin/100 μg/ml Streptomycin Sulfate (“P/S”), in T150 flasks (60 ml/flask) at 37° C., 5% CO2 to a density of no more than 5×10^5 cells/ml. The cells were starved overnight in MEM-α containing 10% FBS, 1.5 g/L NaHCO3 and P/S in T150 flasks (60 ml/flask) at a density of 5×10^5 cells/ml, in 5% CO2, 37° C. The cells were then centrifuged in a swinging-bucket rotor at 200×g for 5 minutes at room temperature. The supernatant was removed, and the cells pooled into one 50 ml conical tube. The cells were washed twice with serum-free medium (MEM-α containing 1.5 g/L NaHCO3 and P/S). After the last wash, the cells were resuspended to a density of 1×10^7 cells/ml in serum-free medium. The cells were then placed in 15 ml conical tubes in 1 ml aliquots and incubated with the caps loosened for 1 hour at 37° C., 5% CO2. Every 10 minutes, the lower portion of each tube was tapped (flicked) several times to prevent the cells from settling (please note, this step is very important!)
It was also observed that EPO-R was phosphorylated when stimulated with non-peptide EPO-R modulators. (See FIG. 4) […]

[4] = system: human bone marrow cells; test: formation of erythroid colonies from human bone marrow in methylcellulose; type: cell-based
Description: as §1
(1) Dilute human bone marrow 1:1 with sterile PBS. (2) Slowly layer bone marrow into 50 ml tubes containing 20 ml of LSM Lymphocyte separation medium (ICN/Cappel—cat #50494). 50 ml bone marrow will yield 2 tubes. (3) Spin tubes at 2000 rpm for 30 minutes with brake off. (4) Slowly take out the middle layer using a 10 ml pipette and transfer into a new 50 ml tube. (5) Add PBS+0.5% BSA+5 mM EDTA to tube for washing. (6) Spin tube for 5 minutes at speed 4 with brake on. (7) Repeat wash step 2 more times. (8) After 3rd wash, resuspend pellet in SF Iscoves' MDM medium. (9) Count by diluting cells in 3% acetic acid. (10) Dilute cells to desired concentration (5×10^5 cells/ml) and seed onto methylcellulose.
(1) Tubes containing 3.0 ml of methylcellulose medium (Stemcell Technology, cat # H4230) supplemented with 50 ng/ml hSCF are prepared. (Alternatively the methylcellulose could be supplemented with 50 ng/ml hSCF, 20 ng/ml of hIL-3 and hIL-6). (2) Compounds or EPO of desired concentrations are added to the tubes. “Control” tubes or tubes that will receive EPO are supplemented with DMSO to a final concentration of 0.16%. […] Colonies are scored on day twelve.

[5] = system: TF-1 and UT-7 cells; test: biological testing in cell lines (cell proliferation and cell signaling); type: cell-based; details: biological testing in cell line
From the text: Compounds identified in the initial screen were further tested for their biological activity in two assays: a cell proliferation assay and a cell signaling assay in TF-1 and UT-7 cells. The hit rate in cell proliferation was 0.16%; hit rate in cell signaling was 0.25%.
Compounds identified in the initial screen were further tested for their biological activity in two assays: a cell proliferation assay and a cell signaling assay in TF-1 cells. The hit rate in cell proliferation was 0.16%; hit rate in cell signaling was 0.25%.

[6] = system: TF-1 cells; test: cell proliferation; type: cell-based; details: 96 hours
Description: TF-1 cells were stimulated for 96 hours with different non-peptide EPO-R modulators, and it was observed that the non-peptide EPO binding molecules stimulated cellular proliferation in dose-responsive manner and to the extent of the natural hormone.

[7] = system: Bcl-xl protein; test: up-regulation of Bcl-xl expression (immunoprecipitation, western blot); type: cell-based
Description: When the subject compounds were tested for anti-apoptotic effect was evaluated, these antibodies were used: Anti-Bcl-X1/s antibody (Santa Cruz Biotechnology, SC-1041), Anti-Bcl-X1 antibody (Santa Cruz Biotechnology, SC8392)
A number of molecules of the subject invention were evaluated in in vitro systems that reflect the condition of cerebral ischemia and metabolic stress. Firstly, it is known that one of the mechanisms by which EPO prevents neuronal apoptosis is by up-regulating the expression levels of Bcl-x1 protein, which is a well-described anti-apoptotic protein. Thus, cells-lines that are known to be EPO responsive (UT-7 and TF-1, used in previous studies) were used as a cellular system to examine the small molecules' anti-apoptotic activity through EPO-R.
The evaluation was performed by starving the cells, stimulating the cells with compounds at appropriate concentrations (or no stimulation for control samples) and immunoprecipitating the cell lysates with antibody specific to both forms (short and long) of Bcl-x1 protein. The amount of Bcl-x1 (long protein form, known to have anti-apoptotic activity) protein was evaluated by western blot analysis.

[8] = system: P-19 cells; test: cell survival of P-19 cells after withdrawal of serum; type: cell-based; details: P19 cells; treated 24 hours before, serum withdrawn for 48 hours
Description: Experiments were performed according to the described protocol. The anti-apoptotic effect of the subject small molecules was evaluated in P-19 cells (a neural-like embryonal carcinoma cell line) that undergo apoptosis upon withdrawal of serum. Briefly, cells were treated with small molecules for 24 hours prior to serum withdrawal. Serum was withdrawn for 48 hours in the presence or absence of a subject small molecule (EM5 and E5A24). At the end of that period, cell survival was evaluated. […] This Figure is representative of the experiment and of the subject small molecules. The experiments were performed according to literature procedures (Siren et.al., Proc. Nat. Acad. Sci. 98, 4044, 2001). Cell survival was determined according to the protocol described for cellular proliferation.

Cc1n[nH]c2c1C(c1ccco1)C1=C(CC(C)(C)CC1=O)N2 (centres unmarked) [Cmpnd E5A29]
cell survival of cortical neurons after glutamate challenge [1]: prevented glutamate induced neuronal death in a dose-responsive manner; also recorded: increased cell survival
increase of cell survival ([1]; cortical neurons): 60%

Cc1ccc(Cl)cc1Nc1nc2nc(C)c(NCC3CC3)cn2n1 [Cmpnd E5]
erythroid colony formation (CFU-e) [2]: stimulate CFU-e formation to the same extent as EPO
activation of EPO-R [3]: activation of EPO-R
erythroid colony formation (CFU-e) [4]: stimulate CFU-e formation to the same extent as EPO
maximum activity compared to EPO natural hormone [5]: maximum activity comparable to that of the maximum activity of EPO
cellular proliferation [6]: proliferative effect

Cn1ncc(S(=O)Oc2ccccc2)c(Cl)c1=O (centres unmarked) [Cmpnd E6]
erythroid colony formation (CFU-e) [2]: stimulate CFU-e formation to the same extent as EPO
erythroid colony formation (CFU-e) [4]: stimulate CFU-e formation to the same extent as EPO
maximum activity compared to EPO natural hormone [5]: maximum activity comparable to that of the maximum activity of EPO

Cc1cc(NCC2CC2)n2nc(Nc3cc(Cl)ccc3C)nc2n1 [EM5]
Bcl-xl expression ([7]; TF-1 cells): up-regulation of Bcl-xl expression
Bcl-xl expression ([7]; UT-7 cells): up-regulation of Bcl-xl expression
Bcl-x1 protein up-regulation ([7]; both cell lines (UT-7 and TF-1)): induced up-regulation of Bcl-x1 protein in a dose-responsive manner
cell viability / protection from apoptosis after withdrawal of serum [8]: protect cells from apoptosis; also recorded: increased cell viability
